Assay results from ChEMBL document CHEMBL1201862, “PubChem BioAssay data set” (2004).
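In this assay, cells in 96-well plates receive the compound at five concentrations for 48 hours. Endpoints are linearly interpolated between the surrounding concentrations. Here, GI50 denotes the concentration required for 50% inhibition of growth.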 The source made the active and inactive calls. Cut-off read from the data, not from the text of the source: active = GI50 up to about 1.1 µM and inactive = higher.

Assays:
Assay in all cases: inhibition of tumour cell growth, NCI panel, 48 h
COLO 205 = tested on: COLO 205
U-251 = tested on: U-251
SW-620 = tested on: SW-620
HCT-116 = tested on: HCT-116
OVCAR-8 = tested on: OVCAR-8
NCI-H226 = tested on: NCI-H226
K562 = tested on: K562
786-0 = tested on: 786-0
SNB-19 = tested on: SNB-19
MDA-MB-231 = tested on: MDA-MB-231
RXF 393 = tested on: RXF 393
Malme-3M = tested on: Malme-3M
KM12 = tested on: KM12
MOLT-4 = tested on: MOLT-4
SF-295 = tested on: SF-295
NCI-H522 = tested on: NCI-H522
HCC 2998 = tested on: HCC 2998
CAKI-1 = tested on: CAKI-1
A498 = tested on: A498
TK-10 = tested on: TK-10

| SMILES | GI50 (COLO 205) | GI50 (U-251) | GI50 (SW-620) | GI50 (HCT-116) | GI50 (OVCAR-8) | GI50 (NCI-H226) | GI50 (K562) | GI50 (786-0) | GI50 (SNB-19) | GI50 (MDA-MB-231) | GI50 (RXF 393) | GI50 (Malme-3M) | GI50 (KM12) | GI50 (MOLT-4) | GI50 (SF-295) | GI50 (NCI-H522) | GI50 (HCC 2998) | GI50 (CAKI-1) | GI50 (A498) | GI50 (TK-10) |
| --- | --- | --- | --- | --- | --- | --- | --- | --- | --- | --- | --- | --- | --- | --- | --- | --- | --- | --- | --- | --- |
| CC(C)CC(=O)NC(Nc1ccc(S(=O)(=O)Nc2ncccn2)cc1)(C(F)(F)F)C(F)(F)F | > 100 µM (inactive) | > 100 µM (inactive) | > 100 µM (inactive) | > 100 µM (inactive) | > 100 µM (inactive) | > 100 µM (inactive) | > 100 µM (inactive) | > 100 µM (inactive) | > 100 µM (inactive) | > 100 µM (inactive) | 20.4 µM (inactive) | > 100 µM (inactive) | > 100 µM (inactive) | > 100 µM (inactive) | > 100 µM (inactive) | > 100 µM (inactive) | > 100 µM (inactive) | > 100 µM (inactive) | – | – |
| CC1CC(NN)=Nc2ccccc2N1 (configuration not stated) | > 100 µM (inactive) | > 100 µM (inactive) | > 100 µM (inactive) | > 100 µM (inactive) | > 100 µM (inactive) | > 100 µM (inactive) | 49.2 µM (inactive) | > 100 µM (inactive) | > 100 µM (inactive) | > 100 µM (inactive) | – | 16.6 µM (inactive) | > 100 µM (inactive) | > 100 µM (inactive) | > 100 µM (inactive) | > 100 µM (inactive) | – | > 100 µM (inactive) | > 100 µM (inactive) | > 100 µM (inactive) |
| CCC[C@H](O)[C@@H](CNc1cc(NC(C)=O)nc(NC(C)=O)n1)N(Cc1ccccc1)Cc1ccccc1 | 26.3 µM (inactive) | 47 µM (inactive) | > 100 µM (inactive) | 16.6 µM (inactive) | 13.7 µM (inactive) | 14.3 µM (inactive) | > 100 µM (inactive) | 17.7 µM (inactive) | 39.3 µM (inactive) | 49.9 µM (inactive) | – | 26.1 µM (inactive) | 11.1 µM (inactive) | 4.47 µM (inactive) | 6.44 µM (inactive) | 8.75 µM (inactive) | 76.4 µM (inactive) | 18.2 µM (inactive) | 30.8 µM (inactive) | 20.3 µM (inactive) |
| O=c1cnn(C2OC(CO)C(O)C(F)C2O)c(=O)[nH]1 (configuration not stated) | > 100 µM (inactive) | > 100 µM (inactive) | > 100 µM (inactive) | > 100 µM (inactive) | > 100 µM (inactive) | > 100 µM (inactive) | > 100 µM (inactive) | > 100 µM (inactive) | > 100 µM (inactive) | > 100 µM (inactive) | – | > 100 µM (inactive) | > 100 µM (inactive) | – | > 100 µM (inactive) | > 100 µM (inactive) | > 100 µM (inactive) | > 100 µM (inactive) | 40.8 µM (inactive) | > 100 µM (inactive) |
| CC(=O)/C(=C\c1ccc(Cl)c(Cl)c1)C(=O)C(C)CN(C)C (configuration not stated) | 11.4 µM (inactive) | 3.26 µM (inactive) | 2.69 µM (inactive) | 2.13 µM (inactive) | 1.91 µM (inactive) | 2.39 µM (inactive) | – | 2.39 µM (inactive) | 1.8 µM (inactive) | 11.5 µM (inactive) | – | 8.15 µM (inactive) | 2.18 µM (inactive) | 2.19 µM (inactive) | 4.32 µM (inactive) | – | 2.39 µM (inactive) | 4.48 µM (inactive) | 2.96 µM (inactive) | 1.94 µM (inactive) |
| CCC1(CC)C(=O)OC(=O)C1(CC)CC | > 100 µM (inactive) | > 100 µM (inactive) | > 100 µM (inactive) | > 100 µM (inactive) | > 100 µM (inactive) | – | > 100 µM (inactive) | > 100 µM (inactive) | > 100 µM (inactive) | > 100 µM (inactive) | – | – | > 100 µM (inactive) | > 100 µM (inactive) | > 100 µM (inactive) | > 100 µM (inactive) | > 100 µM (inactive) | > 100 µM (inactive) | > 100 µM (inactive) | > 100 µM (inactive) |
| CCc1[nH]c(=O)c2oc3cc4ccccc4cc3c2c1C(=O)O | – | – | > 10 µM (inactive) | > 10 µM (inactive) | > 10 µM (inactive) | > 10 µM (inactive) | – | > 10 µM (inactive) | > 10 µM (inactive) | 0.00588 µM (active) | > 10 µM (inactive) | > 10 µM (inactive) | > 10 µM (inactive) | – | > 10 µM (inactive) | > 10 µM (inactive) | > 10 µM (inactive) | – | – | > 10 µM (inactive) |
| CN1CN(C2OC(CO)C(O)C2O)c2nc(N)[nH]c(=O)c21 (configuration not stated) | > 100 µM (inactive) | > 100 µM (inactive) | > 100 µM (inactive) | > 100 µM (inactive) | > 100 µM (inactive) | > 100 µM (inactive) | > 100 µM (inactive) | > 100 µM (inactive) | > 100 µM (inactive) | – | > 100 µM (inactive) | > 100 µM (inactive) | > 100 µM (inactive) | > 100 µM (inactive) | > 100 µM (inactive) | 5.15 µM (inactive) | > 100 µM (inactive) | > 100 µM (inactive) | > 100 µM (inactive) | > 100 µM (inactive) |
| Cc1cc(C)c(C(=O)c2nnc3ccccc3c2N)c(C)c1 | 15.2 µM (inactive) | 28.7 µM (inactive) | 26.7 µM (inactive) | 10.3 µM (inactive) | – | 16.5 µM (inactive) | – | 12.3 µM (inactive) | 35.8 µM (inactive) | 16.9 µM (inactive) | – | – | 16.4 µM (inactive) | 45.4 µM (inactive) | – | – | – | 19.3 µM (inactive) | 26.9 µM (inactive) | – |
| OCc1ccc2c(c1)CC1(Cc3ccc(/C=N/O)cc3C1)C2 (configuration not stated) | 3.1 µM (inactive) | 2.86 µM (inactive) | 1.68 µM (inactive) | 3.26 µM (inactive) | 4.45 µM (inactive) | 10 µM (inactive) | 1.8 µM (inactive) | 10.4 µM (inactive) | 5.35 µM (inactive) | 6.27 µM (inactive) | – | 9.1 µM (inactive) | 1.29 µM (inactive) | 4.73 µM (inactive) | 2.43 µM (inactive) | 2.08 µM (inactive) | 1.97 µM (inactive) | 7.8 µM (inactive) | 27.7 µM (inactive) | 13.4 µM (inactive) |
| c1ccc(/N=C2\c3ccccc3CN2c2ccccc2)cc1 | > 100 µM (inactive) | > 100 µM (inactive) | > 100 µM (inactive) | > 100 µM (inactive) | > 100 µM (inactive) | > 100 µM (inactive) | > 100 µM (inactive) | > 100 µM (inactive) | > 100 µM (inactive) | > 100 µM (inactive) | > 100 µM (inactive) | > 100 µM (inactive) | > 100 µM (inactive) | > 100 µM (inactive) | > 100 µM (inactive) | > 100 µM (inactive) | > 100 µM (inactive) | > 100 µM (inactive) | – | > 100 µM (inactive) |
| COc1ccc(OC)c2sc(N3C(=O)/C(=C/c4ccc(N(C)C)cc4)N=C3c3ccccc3)nc12 | > 100 µM (inactive) | 44.1 µM (inactive) | 49.8 µM (inactive) | 34.8 µM (inactive) | 78.5 µM (inactive) | – | 79.8 µM (inactive) | 92.3 µM (inactive) | > 100 µM (inactive) | > 100 µM (inactive) | – | – | 52 µM (inactive) | 15.5 µM (inactive) | > 100 µM (inactive) | – | > 100 µM (inactive) | > 100 µM (inactive) | 87.7 µM (inactive) | > 100 µM (inactive) |
| CC1CC(C(=O)OC2OC(COC3OC(CO)C(OC4OC(C)C(O)C(O)C4O)C(O)C3O)C(O)C(O)C2O)C2CCC3(C)C(=CCC4(C)C3CCC3C(C)(CO)C(O)C(O)CC34C)C2C1C (configuration not stated) | 17.3 µM (inactive) | 17.5 µM (inactive) | 30.1 µM (inactive) | 18.2 µM (inactive) | 17.4 µM (inactive) | 32.5 µM (inactive) | 34.3 µM (inactive) | 21 µM (inactive) | 17.4 µM (inactive) | 17.9 µM (inactive) | – | – | 17.9 µM (inactive) | 19.6 µM (inactive) | 28.8 µM (inactive) | 13.7 µM (inactive) | 21.8 µM (inactive) | > 100 µM (inactive) | > 10 µM (inactive) | > 100 µM (inactive) |
| O=S(=O)(N/C(=N\O)Nc1ccc(Cl)cc1)c1cc2ccccc2o1 | 22.6 µM (inactive) | 17.7 µM (inactive) | 23.1 µM (inactive) | 11.4 µM (inactive) | 18.1 µM (inactive) | 33.4 µM (inactive) | 11.1 µM (inactive) | 20.7 µM (inactive) | 34.5 µM (inactive) | 18 µM (inactive) | 34.8 µM (inactive) | 19.9 µM (inactive) | 13.2 µM (inactive) | 22.6 µM (inactive) | 14.9 µM (inactive) | 12.2 µM (inactive) | – | 10.6 µM (inactive) | – | 28.8 µM (inactive) |
| O=C(O)CSC(CC1(c2ccc(Cl)cc2)NC(=O)CS1)c1ccc(Cl)cc1 (configuration not stated) | > 100 µM (inactive) | 89.7 µM (inactive) | > 100 µM (inactive) | > 100 µM (inactive) | > 100 µM (inactive) | – | > 100 µM (inactive) | > 100 µM (inactive) | > 100 µM (inactive) | > 100 µM (inactive) | – | – | > 100 µM (inactive) | > 100 µM (inactive) | > 100 µM (inactive) | 46.2 µM (inactive) | – | > 100 µM (inactive) | > 100 µM (inactive) | > 100 µM (inactive) |
| COC(=O)C1C2C=CC(C2)C1(C(=O)OC)[S+]([O-])CC12CCC(CC1O)C2(C)C (configuration not stated) | > 100 µM (inactive) | > 100 µM (inactive) | 16 µM (inactive) | > 100 µM (inactive) | > 100 µM (inactive) | > 100 µM (inactive) | 39.4 µM (inactive) | > 100 µM (inactive) | > 100 µM (inactive) | – | 77.8 µM (inactive) | > 100 µM (inactive) | > 100 µM (inactive) | > 100 µM (inactive) | > 100 µM (inactive) | > 100 µM (inactive) | > 100 µM (inactive) | > 100 µM (inactive) | > 100 µM (inactive) | > 100 µM (inactive) |
